Assay [1] has as its target T1, BRD4-BD2 (Homo sapiens, UniProt O60885).
T1 construct: made in house; host or cells: T7 phage grown in E. coli host derived from BL21
Kind of assay: Binding affinity to BRD4-BD2 (bromoKdELECT assay). The protocol: Exemplary compounds were tested for ability to bind to BRD4-BD2.
Compounds were tested using a bromoKdELECT assay. T7 phage strains displaying bromodomains were grown in parallel in 24-well blocks in an E. coli host derived from the BL21 strain. E. coli were grown to log-phase and infected with T7 phage from a frozen stock (multiplicity of infection=0.4) and incubated with shaking at 32° C. until lysis (90-150 minutes). The lysates were centrifuged (5,000×g) and filtered ([…]) to remove cell debris. Streptavidin-coated magnetic beads were treated with biotinylated small molecule or acetylated peptide ligands for 30 minutes at room temperature to generate affinity resins for bromodomain assays. The liganded beads were blocked with excess biotin and washed with blocking buffer (SeaBlock (Pierce), 1% BSA, 0.05% Tween 20, 1 mM DTT) to remove unbound ligand and to reduce nonspecific phage binding. Binding reactions were assembled by combining bromodomains, liganded affinity beads, and test compounds in 1× binding buffer (17% SeaBlock, 0.33×PBS, 0.04% Tween 20, 0.02% BSA, 0.004% Sodium azide, 7.4 mM DTT). Test compounds were prepared as 1000× stocks in 100% DMSO. Kds were determined using an 11-point 3-fold compound dilution series with one DMSO control point. […] The bromodomain concentration in the eluates was measured by qPCR.

In assay [2] the target is T2, BRD4-BD1 (Homo sapiens, UniProt O60885).
T2 construct: made in house; host or cells: T7 phage grown in E. coli host derived from BL21
Kind of assay: Binding affinity to BRD4-BD1 (bromoKdELECT assay). The method, then:
Exemplary compounds were tested for ability to bind to BRD4-BD 1.
Compounds were tested using a bromoKdELECT assay. T7 phage strains displaying bromodomains were grown in parallel in 24-well blocks in an E. coli host derived from the BL21 strain. E. coli were grown to log-phase and infected with T7 phage from a frozen stock (multiplicity of infection=0.4) and incubated with shaking at 32° C. until lysis (90-150 minutes). The lysates were centrifuged (5,000×g) and filtered ([…]) to remove cell debris. […] The liganded beads were blocked with excess biotin and washed with blocking buffer (SeaBlock (Pierce), 1% BSA, 0.05% Tween 20, 1 mM DTT) to remove unbound ligand and to reduce nonspecific phage binding. […] Test compounds were prepared as 1000× stocks in 100% DMSO. Kds were determined using an 11-point 3-fold compound dilution series with one DMSO control point. […] The compounds were then diluted directly into the assays such that the final concentration of DMSO was 0.09%. All reactions performed in polypropylene 384-well plates. Each was a final volume of 0.02 ml. […] The bromodomain concentration in the eluates was measured by qPCR.

Consider `CCN(CCCCCCCCNC(=O)C[C@@H]1N=C(c2ccc(Cl)cc2)c2c(sc(C)c2C)-n2c(C)nnc21)CCOc1ccc(C(=O)c2c(-c3ccc(O)cc3)sc3cc(O)ccc23)cc1` [I-2, (S)-2-(4-(4-chlorophenyl)-2,3,9-trimethyl-6H-thieno[3,2-f][1,2,4]triazolo[4,3-a][1,4]diazepin-6-yl)-N-(8-(ethyl(2-(4-(6-hydroxy-2-(4-hydroxyphenyl)benzo[b]thiophene-3-carbonyl)phenoxy)ethyl)amino)octyl)acetamide], for which the Kd (as a rule, the equilibrium constant for the complex coming apart) in assay [1] is less than 0.05 µM; in assay [2], 0.05 to 0.5 µM.

As to `CCN(CCOCCOCCNC(=O)C[C@@H]1N=C(c2ccc(Cl)cc2)c2c(sc(C)c2C)-n2c(C)nnc21)CCOc1ccc(C(=O)c2c(-c3ccc(O)cc3)sc3cc(O)ccc23)cc1` [I-3, (S)-2-(4-(4-chlorophenyl)-2,3,9-trimethyl-6H-thieno[3,2-f][1,2,4]triazolo[4,3-a][1,4]diazepin-6-yl)-N-(2-(2-(2-(ethyl(2-(4-(6-hydroxy-2-(4-hydroxyphenyl)benzo[b]thiophene-3-carbonyl)phenoxy)ethyl)amino)ethoxy)ethoxy)ethyl) acetamide], the Kd in assay [1] and in assay [2] was less than 0.05 µM in each case.

These data come from patent US12558428B2, “Heterobifunctional compounds and their use in treating disease” (Halda Therapeutics OpCo, Inc., priority 2024, dated 2026).
